System: Rpd3-regulated genes (URS-URA3, INO1, IME2, CAR1, SPO13, TRK2)
Experiment: RT-qPCR of Rpd3-regulated genes in yeast
Format: cell-based, S. cerevisiae
Conditions: for derepression of URS-URA3 in deletion strains: rpd3Δ, sin3Δ, ume6Δ, sin3Δ/ume6Δ
Description: After yeast cells reached OD600 nm ˜0.5 in 0.8-1 mL of YPD, they were grown for two more hours at room temperature before being centrifuged to remove supernatant and freezing pellets on dry ice. For compound treatments, yeast cells at OD600 nm˜0.5 in YPD were incubated at room temperature for two hours with DMSO (1-1.6%) or the desired compound (from 25 mM stock in 100% DMSO) in an 2 mL-tube for a final volume of 0.8 mL in YPD, before being centrifuged, washed and frozen as described above. Yeast cells were then harvested for RNA extraction using a RiboPure RNA Purification Kit (Invitrogen, cat #AM1926), which involves mechanical cell wall disruption, phenol extraction of the lysate, and RNA purification using glass fiber, and filter-based RNA purification columns. RNA concentration was measured for individually purified RNA samples using a NanoDrop spectrophotometer. A total of 1 μg RNA from each sample was used for reverse transcription following a published procedure [Choi, S. G. et al 2012].
The RT-qPCR protocol used in this study was described elsewhere [Choi et al 2012]. Culture, RNA extraction, and compound treatments for neuroblastoma SK-N-BE(2)-C cells are described below. Approximately 1 μg RNA per sample was used for reverse transcription. Using a thermocycler, RNA was denatured in the presence of 0.2 μg 18 mer oligo-dT by heating the plate at 65° C. for 10 min. The plate was then immediately cooled down on ice to anneal oligo-dT on the poly-A tail of mRNA. A master mix of AffinityScript Multiple Temperature Reverses Transcriptase (Agilent, cat #600107) was prepared following the manufacturer's protocol, and mixed with RNA samples previously annealed with the oligo-dT. The plate was incubated at 42° C. for 2 h to generate cDNAs from mRNA templates. The reverse transcriptase was then denatured by heating the plate at 70° C. for 15 min. The resulting cDNA was diluted (1:20) in sterile, ultra pure water (ddH2O), and stored at −20° C. until used for qPCR. To measure gene expression, the diluted cDNA was mixed with 5 μL PowerUp SYBR Green master mix (Applied Biosystems, cat #A25743), and the mix of primers (forward+reverse, see FIG. 31; 0.3 μM final concentration) for a total volume of 10 μL. Two technical replicates were generated per cDNA sample in the 384-well PCR plate (Applied Biosystems, cat #4343370). The plate was tightly sealed with optical adhesive film (Applied Biosystems, cat #4311971). Quantitative PCR was conducted with a QuantStudio real-time PCR system from Applied Biosystems, with the following settings: 50° C./2 min, 95° C./10 min, 96° C./15 s/40 cycles, and 60° C./30 s. Dissociation curves were checked for each PCR product, to assess the specificity of the PCR amplicons.
Expression of gene X normalized to the control gene expression=k*1.96^(Ct^Control^−Ct^Test^) • where k is an arbitrary multiplier (k=1000 in this study), 1.96 is the PCR amplification efficiency constant, Ct is the cycle threshold, CtControl is the Ct value for the housekeeping gene used as control (UBC6 in yeast [Teste et al 2009]; RPS11 in human cells [Zhan et al 2014], and CtTest is the Ct value for the tested gene. Replicates corresponding to DMSO treatments or WT yeast cells were averaged and other data points normalized using those DMSO or WT values as references (i.e. expression relative to DMSO or WT). TAF10 in yeast or SNRPD3 in human cells were used as genes not known for being regulated by an HDAC complex (HDAC-unrelated genes).

SMILES: CC(NC(=O)c1c(O)n2ccccc2nc1=O)c1ccccc1 (racemic) [E6]
- increase of INO1 expression (250 μM, relative to DMSO): ~150 fold
- derepression of URS-URA3 in deletion strains (250 μM): drastically decreased

SMILES: C[C@@H](NC(=O)c1c(O)n2ccccc2nc1=O)c1ccccc1 [E6R, 4-hydroxy-2-oxo-N—((R)-1-phenylethyl)-3,4-dihydro-2H-pyrido[, 2-a]pyrimidine-3-carboxamide]
- expression at URS-URA3 compared to E6S (different doses): stronger induction of expression at URS-URA3

SMILES: CC(/C=C/C(=O)NO)=C\[C@@H](C)C(=O)c1ccc(N(C)C)cc1 [TSA, trichostatin A]
- effect on CAR1 and SPO13 expression (250 μM): consistently derepressed
- effect on all Rpd3-regulated loci (FIG. 3I): activated all Rpd3-regulated loci
- derepression of URS-URA3 in deletion strains (250 μM): no effect

— US20240299393A1, “SMALL MOLECULE DISRUPTORS OF PROTEIN INTERACTIONS IN HISTONE DEACETYLASE COMPLEXES” (Dana-Farber Cancer Institute, Inc., priority 2021, published 2024)
